Data on two compounds can be found in patent US11339169B2, “P2X3 and/or P2X2/3 compounds and methods” (Asana BioSciences, LLC, priority 2016, dated 2022).

One test concerns Male Sprague Dawley rats. Briefly: In vivo thermal hyperalgesia (Hargreaves test), CFA-injected rat. The conditions noted are these: at 1 hour, p<0.01. The protocol: Male Sprague Dawley rats of young adult age group and body weight range of 180-200 g were included in the study. Animals were housed under a 12 h light/dark cycle with food and water ad libitum. The animals underwent acclimatization with the observation chambers of the Hargreaves' apparatus for two days, twice daily for 45-60 min each time prior to initiation of study. Animals were also habituated to the apparatus for 15-30 min before each testing. Thermal hyperalgesia was assessed using the rat plantar test (Ugo Basile, Italy) following a modified method of Hargreaves (1988), “A new and sensitive method for measuring thermal nociception in cutaneous hyperalgesia”, Pain 32: 77-88, the entire disclosure of which is herein incorporated by reference. […]
Following basal readout of PWL values to the thermal stimulus (PWL measurements described previously), 50 μL of complete Freund's Adjuvant (CFA—1 mg/mL suspension—Sigma, USA, Cat #F5881) was injected subcutaneously into the plantar surface of the right hind (ipsilateral) paw of animals under light isoflurane anesthesia. […]
Next day (day 1) after 20-22 h of CFA injection, PWL of animals were recorded. Mean of three readings are taken as PWL recording of ipsilateral paw of each animal for pre and post CFA basal readout. […]

In a further test the target is T1, hP2X3 (Homo sapiens, UniProt P56373).
T1 construct: host or cells: HEK (hP2X3-HEK)
T1 sequence (P56373 1-397): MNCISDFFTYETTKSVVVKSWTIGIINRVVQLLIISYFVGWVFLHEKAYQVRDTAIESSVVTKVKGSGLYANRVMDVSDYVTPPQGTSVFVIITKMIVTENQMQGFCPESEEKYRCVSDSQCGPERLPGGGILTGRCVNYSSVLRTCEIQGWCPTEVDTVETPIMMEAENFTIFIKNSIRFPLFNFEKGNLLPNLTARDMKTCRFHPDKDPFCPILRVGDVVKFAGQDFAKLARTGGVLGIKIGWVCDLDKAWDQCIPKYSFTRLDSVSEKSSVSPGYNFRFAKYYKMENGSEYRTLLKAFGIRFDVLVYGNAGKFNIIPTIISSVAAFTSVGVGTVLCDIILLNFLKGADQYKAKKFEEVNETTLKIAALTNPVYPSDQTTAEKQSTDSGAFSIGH
Briefly: FLIPR intracellular calcium assay, hP2X3. The test is classed as cell-based. The following applies: human P2X3-HEK cells, agonist at EC75. Summed up: (§1)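 HEK (hP2X3) or tetracycline-inducible TRex293 (hP2X2/3) cells loaded with Calcium 4 dye, then given 11-point half-log compound dilutions for 15 min at room temperature in HBSS/HEPES, pH 7.4, with 1.8 mM CaCl2. Cells challenged with agonist at EC75; IC50 derived from fluorescence inhibition versus no-compound wells.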
For orientation: Calcium assays in cells follow changes in intracellular calcium, usually with a dye or a luminescent sensor.

For a further test, the target named is T2, hP2X2/3 (Homo sapiens, UniProt P56373+Q9UBL9).
T2 construct: host or cells: TRex293 (hP2X2/3-TRex293), doxycycline-induced
T2 sequence (P56373 1-397): T1 sequence (P56373 1-397)
T2 sequence (Q9UBL9 1-471): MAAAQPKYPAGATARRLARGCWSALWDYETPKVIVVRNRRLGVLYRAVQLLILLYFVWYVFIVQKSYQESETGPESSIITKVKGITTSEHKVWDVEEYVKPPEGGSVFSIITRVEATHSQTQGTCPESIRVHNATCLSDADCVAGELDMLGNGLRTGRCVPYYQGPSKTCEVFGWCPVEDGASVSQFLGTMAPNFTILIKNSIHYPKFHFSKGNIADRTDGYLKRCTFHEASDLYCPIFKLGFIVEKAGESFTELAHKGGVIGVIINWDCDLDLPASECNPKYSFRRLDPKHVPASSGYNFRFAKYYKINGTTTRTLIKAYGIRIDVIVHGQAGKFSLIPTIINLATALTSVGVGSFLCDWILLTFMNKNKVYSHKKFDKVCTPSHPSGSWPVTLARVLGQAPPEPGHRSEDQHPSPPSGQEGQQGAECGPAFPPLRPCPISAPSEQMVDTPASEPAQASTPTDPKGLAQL
Briefly: FLIPR intracellular calcium assay, hP2X2/3. The following applies: human P2X2/3-TRex293 cells, agonist at EC75. The class given is cell-based. Summed up: as §1

As usually defined, the IC50 is the concentration that inhibits the measured activity by half. For the compound `CCC(C)n1ncc2nc(N3CCN(C(N)=O)CC3)nc(N[C@@H](c3cnc4ccccc4c3)C3CC3)c21` (stereo partly drawn) [Example 10, 4-{1-sec-Butyl-7-[((R)-cyclopropyl-quinolin-3-yl-methyl)-amino]-1H-pyrazolo[4,3-d]pyrimidin-5-yl}-piperazine-1-carboxylic Acid Amide], in the test on Male Sprague Dawley rats (30 mg/kg po), the “reversal to pre-treatment PWL value” was 32%. The IC50 at hP2X3 and at hP2X2/3 was 1 to 100 nM each time.

Regarding `CC[C@H](C)n1ncc2nc(N3CCN(C(C)=O)CC3)nc(N[C@H](C)c3cnc4ccccc4c3)c21` [Example 19], the “reversal to pre-treatment PWL value” in the test with Male Sprague Dawley rats (60 mg/kg po) was 36%. Moreover, the half-maximal inhibitory concentration (IC50) at hP2X3 fell in the range of 1 to 100 nM; at hP2X2/3 it was 100 to 1000 nM.
